Measurements published in US8853394B2, “Pharmacokinetically improved compounds” (Surface Logix, Inc., priority 2006, dated 2014).
≈ marks a conversion by molar mass, not a printed value. Where two headings read alike, the source gives them in different places.

How the values were obtained:
Solubility = type: physicochemical
PDE-1 = PDE-1 inhibition; type: biochemical
Caco-2 permeability = type: in vitro ADME; conditions: human; for Papp A→B: AtoB; for Papp B→A: BtoA
From the text: Several model systems are available, employing monolayers of various cell types, for evaluation of active transport of pharmaceutically active substances. For example, monolayers of Caco-2 intestinal epithelial cells can be used to evaluate active transport of substances between the intestine and the bloodstream. When plated on a surface which allows the flow of material from apical to basolateral and vice versa, such cells form a biological membrane which can be used to simulate physiological absorption and bioavailability. In another example, mouse brain capillary endothelial cell (MBEC) lines have been established to evaluate active transport in and out of the central nervous system. Another example of such cells is HT29 human colon carcinoma cells. Further, monolayers expressing particular transporter proteins can be established using transfected cells. For example, Sasaki et al (2002) J. Biol. Chem. 8:6497 used a double-transfected Madin-Darby canine kidney cell monolayer to study transport of organic anions.

PDE-3 = PDE-3 inhibition; type: biochemical
PAMPA permeability = type: in vitro ADME
PDE5 = PDE5 (Homo sapiens, UniProt O76074); assay: PDE-5 human inhibition; type: biochemical
PDE-6 bovine = biological target: T1, PDE-6 bovine (Bos taurus, UniProt P11541+P23439); assay: PDE-6 bovine inhibition; type: biochemical
T1 sequence (P11541 2-856 limits assumed): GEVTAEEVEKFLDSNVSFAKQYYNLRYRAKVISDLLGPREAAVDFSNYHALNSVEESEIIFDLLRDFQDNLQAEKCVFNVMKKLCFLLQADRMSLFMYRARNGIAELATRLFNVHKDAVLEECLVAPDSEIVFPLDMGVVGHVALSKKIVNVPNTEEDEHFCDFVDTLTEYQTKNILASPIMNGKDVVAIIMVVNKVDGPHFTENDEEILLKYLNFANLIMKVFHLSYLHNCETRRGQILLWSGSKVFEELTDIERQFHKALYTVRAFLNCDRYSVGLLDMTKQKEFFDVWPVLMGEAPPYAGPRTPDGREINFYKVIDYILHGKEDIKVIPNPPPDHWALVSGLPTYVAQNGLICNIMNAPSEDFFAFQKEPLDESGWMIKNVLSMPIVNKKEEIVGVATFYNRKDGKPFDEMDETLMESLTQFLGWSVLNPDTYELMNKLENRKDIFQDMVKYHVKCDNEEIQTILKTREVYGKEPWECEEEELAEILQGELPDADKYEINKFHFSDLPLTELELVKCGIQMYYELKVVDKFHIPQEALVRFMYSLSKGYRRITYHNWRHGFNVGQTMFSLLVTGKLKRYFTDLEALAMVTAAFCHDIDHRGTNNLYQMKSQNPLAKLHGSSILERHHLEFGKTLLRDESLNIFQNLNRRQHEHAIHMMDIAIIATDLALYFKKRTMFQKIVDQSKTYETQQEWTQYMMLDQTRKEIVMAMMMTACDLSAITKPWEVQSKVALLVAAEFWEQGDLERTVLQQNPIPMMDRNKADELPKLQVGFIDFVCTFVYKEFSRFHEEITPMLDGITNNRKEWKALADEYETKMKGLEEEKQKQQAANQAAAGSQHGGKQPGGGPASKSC
T1 sequence (P23439 2-850 limits assumed): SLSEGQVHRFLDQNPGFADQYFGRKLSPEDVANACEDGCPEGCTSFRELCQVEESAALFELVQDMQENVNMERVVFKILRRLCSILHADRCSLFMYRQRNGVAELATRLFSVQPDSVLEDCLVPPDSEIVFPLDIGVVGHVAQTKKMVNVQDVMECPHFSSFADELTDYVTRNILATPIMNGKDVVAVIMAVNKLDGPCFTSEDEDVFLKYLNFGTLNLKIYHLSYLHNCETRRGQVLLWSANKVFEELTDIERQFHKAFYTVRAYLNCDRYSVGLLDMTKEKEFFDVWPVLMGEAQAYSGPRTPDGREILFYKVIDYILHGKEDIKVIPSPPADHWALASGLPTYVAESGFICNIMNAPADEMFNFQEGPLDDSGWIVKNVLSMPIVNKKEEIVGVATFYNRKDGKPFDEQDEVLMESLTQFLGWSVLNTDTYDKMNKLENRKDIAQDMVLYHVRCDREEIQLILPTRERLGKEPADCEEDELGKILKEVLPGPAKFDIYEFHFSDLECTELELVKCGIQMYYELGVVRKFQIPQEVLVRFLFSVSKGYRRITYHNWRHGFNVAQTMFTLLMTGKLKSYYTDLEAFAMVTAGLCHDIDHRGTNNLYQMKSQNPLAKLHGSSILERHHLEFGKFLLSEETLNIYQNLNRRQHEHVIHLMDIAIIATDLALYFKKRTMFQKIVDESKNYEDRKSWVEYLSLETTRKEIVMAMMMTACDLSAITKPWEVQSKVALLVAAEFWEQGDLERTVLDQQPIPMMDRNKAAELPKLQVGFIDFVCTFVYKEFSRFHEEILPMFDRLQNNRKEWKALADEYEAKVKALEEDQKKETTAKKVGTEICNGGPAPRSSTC

[1] = Chronic Cytoxicity (mouse 3T3); type: cell-based; conditions: 3T3 cells
Non-Spec Binding = type: in vitro ADME
Protein Binding = type: in vitro ADME; conditions: human, human serum components
Procedure: In general, protein binding is assessed by measuring the capacity of molecules of the invention to bind to one or more human serum components or mimics thereof. In one embodiment, suitable functional residues may be identified by screening of surfaces comprising such residues for their ability to resist adsorption of serum components, including, but not limited to serum proteins, and preferably human serum proteins. Candidate residues can be screened directly by attaching them to a solid support and testing the support for protein resistance. Alternatively, candidate residues are incorporated into, or linked to molecules of pharmaceutical interest. Such compounds may be synthesized on a solid support, or bound to a solid support after synthesis. In a non-limiting example of a direct binding assay, immobilized candidate functional residues or molecules incorporating such residues are tested for their ability to bind serum components. The serum components can be labeled with a signaling moiety for detection, or a labeled secondary reagent that binds to such serum components can be used.
A direct binding analysis can also be preformed in liquid phase. For example, test compounds can be mixed with one or more serum components in liquid phase, and the unbound molecules determined.

PDE-4 human = PDE-4 human inhibition; type: biochemical
[2] = T1/2 in human liver microsomes; type: in vitro ADME
[3] = T1/2 in rat liver microsomes; type: in vitro ADME
[4] = pH 2.7, aqueous buffer, read-out: Solubility (ug/mL) pH 2.7
[5] = pH 7.4, aqueous buffer, read-out: Solubility (ug/mL) pH 7.4

| SMILES | solubility (Solubility; [4]) | solubility (Solubility; [5]) | IC50 (PDE-1) | Papp A→B (Caco-2 permeability) | Papp B→A (Caco-2 permeability) | IC50 (PDE-3) | Papp (PAMPA permeability; Hex, read-out: PAMPA Hex) | Papp (PAMPA permeability; Lec, read-out: PAMPA Lec) | IC50 (PDE5) | IC50 (PDE-6 bovine) | GI50 [1] | LC50 (50% lethal concentration) [1] | Non-Spec Binding (%) (Non-Spec Binding) | fraction unbound (Protein Binding) | IC50 (PDE-4 human) | half-life [2] | half-life [3] |
| --- | --- | --- | --- | --- | --- | --- | --- | --- | --- | --- | --- | --- | --- | --- | --- | --- | --- |
| CCCc1nc(C)c2c(=O)[nH]c(-c3cc(S(=O)(=O)N(C)CCNC)ccc3OCC)nn12 [Compound 2] | > 50 µg/mL | > 50 µg/mL | 82 nM | 1.48 ×10⁻⁶ cm/s | 9.88 ×10⁻⁶ cm/s | 1930 nM | 1.17 ×10⁻⁶ cm/s | 1.47 ×10⁻⁶ cm/s | 0.646 nM | 16.3 nM | > 75000 nM | > 75000 nM | – | – | – | – | – |
| CCCc1nc(C)c2c(=O)[nH]c(-c3cc(S(=O)(=O)N(C)C(C)(C)C)ccc3OCC)nn12 [Compound 3] | 90.2 µg/mL (≈ 195 µM) | 15 µg/mL (≈ 32.5 µM) | 11.9 nM | 50.8 ×10⁻⁶ cm/s | 50.4 ×10⁻⁶ cm/s | 323 nM | 53.9 ×10⁻⁶ cm/s | – | 0.107 nM | 3.74 nM | > 50000 nM | > 100000 nM | – | – | – | – | – |
| CCCc1nc(C)c2c(=O)[nH]c(-c3cc(S(=O)(=O)NCCO)ccc3OCC)nn12 [Compound 4] | – | – | 18.7 nM | – | – | 2030 nM | ~0.0062 ×10⁻⁶ cm/s | 0.0019 ×10⁻⁶ cm/s | 1.08 nM | 5.63 nM | ~50000 nM | > 100000 nM | – | – | – | – | – |
| CCCc1nc(C)c2c(=O)[nH]c(-c3cc(S(=O)(=O)N(CCO)CCO)ccc3OCC)nn12 [Compound 6] | – | – | 26 nM | 4.3 ×10⁻⁶ cm/s | 28.1 ×10⁻⁶ cm/s | 1500 nM | ~0.08 ×10⁻⁶ cm/s | – | 0.52 nM | 17 nM | – | – | – | – | – | – | – |
| CCCc1nc(C)c2c(=O)[nH]c(-c3cc(S(=O)(=O)N(C)C[C@H](COC)OC)ccc3OCC)nn12 [Compound 7] | – | – | 14.7 nM | 48.6 ×10⁻⁶ cm/s | 57.4 ×10⁻⁶ cm/s | 784 nM | 76.1 ×10⁻⁶ cm/s | – | 0.356 nM | 2.9 nM | – | – | 25.5% | 0.018 | – | – | – |
| CCCc1nc(C)c2c(=O)[nH]c(-c3cc(S(=O)(=O)N(C)C)ccc3OCC)nn12 [Compound 8] | – | – | 31 nM | 45.4 ×10⁻⁶ cm/s | 47.4 ×10⁻⁶ cm/s | 1200 nM | 68.9 ×10⁻⁶ cm/s | – | 1 nM | 5 nM | – | – | 44.2% | 0.024 | – | – | – |
| CCCc1nc(C)c2c(=O)[nH]c(-c3cc(S(=O)(=O)N(CCOCC)CCOCC)ccc3OCC)nn12 [Compound 10] | – | – | 12 nM | – | – | 546 nM | 49 ×10⁻⁶ cm/s | – | 0.34 nM | 2.6 nM | – | – | 89.9% | 0.012 | – | – | – |
| CCCc1nc(C)c2c(=O)[nH]c(-c3cc(S(=O)(=O)N4CCC[C@H]4CN4CCCC4)ccc3OCC)nn12.Cl [Compound 11] | > 50 µg/mL | > 50 µg/mL | 48 nM | 6.87 ×10⁻⁶ cm/s | 30.5 ×10⁻⁶ cm/s | 2100 nM | 3.86 ×10⁻⁶ cm/s | – | 1 nM | 23 nM | 25000 nM | > 100000 nM | – | – | – | – | – |
| CCCc1nc(C)c2c(=O)[nH]c(-c3cc(S(=O)(=O)N(C)CC(=O)O)ccc3OCC)nn12 [Compound 12] | – | – | 24 nM | 2.2 ×10⁻⁶ cm/s | 5.5 ×10⁻⁶ cm/s | 1300 nM | – | – | 0.1 nM | 0.48 nM | – | – | 0.8% | 0.025 | 5000 nM | – | – |
| CCCc1nc(C)c2c(=O)[nH]c(-c3cc(S(=O)(=O)NCCCN4CCCC4=O)ccc3OCC)nn12 [Compound 13] | – | – | 3.5 nM | 10.6 ×10⁻⁶ cm/s | 36.7 ×10⁻⁶ cm/s | 777 nM | – | – | 0.051 nM | 0.645 nM | – | – | 5.95% | 0.0885 | 373 nM | 12.7 min | 16.6 min |
| CCCc1nc(C)c2c(=O)[nH]c(-c3cc(S(=O)(=O)N(C)CC(=O)N(C)OC)ccc3OCC)nn12 [Compound 14] | – | – | 12 nM | 20.6 ×10⁻⁶ cm/s | 48.8 ×10⁻⁶ cm/s | 648 nM | – | – | 0.104 nM | 2.9 nM | – | – | 9.9% | 0.024 | 1550 nM | – | – |
| CCCc1nc(C)c2c(=O)[nH]c(-c3cc(S(=O)(=O)N4CCN(CC(=O)N(C)C)CC4)ccc3OCC)nn12 [Compound 16] | – | – | 17 nM | 2.65 ×10⁻⁶ cm/s | 45.4 ×10⁻⁶ cm/s | 941 nM | – | – | 0.04 nM | 0.365 nM | – | – | 9.72% | 0.11 | 963 nM | > 60 min | 59.9 min |
| CCCc1nc(C)c2c(=O)[nH]c(-c3cc(S(=O)(=O)N(C)CCN4CCCC4=O)ccc3OCC)nn12 [Compound 20] | 93.3 µg/mL (≈ 181 µM) | 90.9 µg/mL (≈ 176 µM) | 11.5 nM | – | – | 1170 nM | – | – | 0.135 nM | 0.63 nM | – | – | 7.4% | 0.037 | 944 nM | – | – |
| CCCc1nc(C)c2c(=O)[nH]c(-c3cc(S(=O)(=O)N4CCN(CC(=O)N5CCOCC5)CC4)ccc3OCC)nn12 [Compound 22] | – | – | 18.5 nM | – | – | 511 nM | – | – | 0.05 nM | 0.92 nM | – | – | 0.8% | 0.116 | 2950 nM | – | – |
| CCCNS(=O)(=O)c1ccc(OCC)c(-c2nn3c(CCC)nc(C)c3c(=O)[nH]2)c1 [Compound 23] | – | – | 15 nM | – | – | 3700 nM | – | – | 0.19 nM | 0.62 nM | – | – | – | – | 2300 nM | – | – |
